Experimental data reported in US11753407B2, “Compounds for treating spinal muscular atrophy” (PTC Therapeutics, Inc., priority 2012, dated 2023).

Experiments:
[1] = system: Smn protein in SMA patient fibroblast cells (GM03813); experiment: Smn protein assay in cultured cells (SMN HTRF); assay type: cell-based, human; settings: SMA patient fibroblast cells, 48 hours; for maximum fold (Fold) increase of Smn protein: 7-point concentration data, fold relative to vehicle control; for EC1.5x for Smn protein expression: 7-point concentration curve, SMN HTRF, concentration producing 1.5 times Smn protein vs DMSO vehicle control
Experimental: The SMN HTRF (homogeneous time resolved fluorescence) assay is used to quantify the level of Smn protein in SMA patient fibroblast cells treated with test compounds.
Protocol. Cells are thawed and cultured in DMEM-10% FBS for 72 hours. Cells are trypsinized, counted and re-suspended to a concentration of 25,000 cells/mL in DMEM-10% FBS. The cell suspension is plated at 5,000 cells per well in a 96 well microtiter plate and incubated for 3 to 5 hours. […] Test compounds are serially diluted 3.16-fold in 100% DMSO to generate a 7-point concentration curve. 1 μL of test compound solution is transferred to cell-containing wells and cells are incubated for 48 hours in a cell culture incubator (37° C., 5% CO2, 100% relative humidity). Triplicate samples are set up for each test compound concentration. After 48 hours, the supernatant is removed from the wells and 25 μL of the RIPA lysis buffer, containing protease inhibitors, is added to the wells and incubated with shaking at room temperature for 1 hour. 25 μL of the diluent is added and then 35 μL of the resulting lysate is transferred to a 384-well plate, where each well contains 5 μL of the antibody solution (1:100 dilution of anti-SMN d2 and anti-SMN kryptate in SMN reconstitution buffer). The plate is centrifuged for 1 minute to bring the solution to the bottom of the wells, then incubated overnight at room temperature. Fluorescence for each well of the plate at 665 nm and 620 nm is measured on an EnVision multilabel plate reader (Perkin-Elmer).
The normalized fluorescence signal is calculated for each sample, Blank and vehicle control well by dividing the signal at 665 nm by the signal at 620 nm. Normalizing the signal accounts for possible fluorescence quenching due to the matrix effect of the lysate. The ΔF value (a measurement of Smn protein abundance as a percent value) for each sample well is calculated by subtracting the normalized average fluorescence for the Blank control wells from the normalized fluorescence for each sample well, then dividing this difference by the normalized average fluorescence for the Blank control wells and multiplying the resulting value by 100. The ΔF value for each sample well represents the Smn protein abundance from test compound-treated samples. The ΔF value for each sample well is divided by the ΔF value for the vehicle control wells to calculate the fold increase in Smn protein abundance relative to the vehicle control.
For compounds of Formula (I) or a form thereof disclosed herein, Table 9 provides the EC1.5× for Smn protein expression that was obtained from the 7-point concentration data generated for each test compound according to the procedure of Biological Example 7. The term “EC1.5× for Smn protein expression” is defined as that concentration of test compound that is effective in producing 1.5 times the amount of Smn protein in an SMA patient fibroblast cell compared to the amount produced from the DMSO vehicle control. An EC1.5× for Smn protein expression between >3 μM and ≤10 μM is indicated by one star (*), an EC1.5× between >1 μM and ≤3 μM is indicated by two stars (**), an EC1.5× between >0.3 μM and ≤1 μM is indicated by three stars (***) and an EC1.5x≤0.3 μM is indicated by four stars (****).
For compounds of Formula (I) or a form thereof disclosed herein, Table 10 provides the maximum fold (Fold) increase of Smn protein that was obtained from the 7-point concentration data generated for each test compound according to the procedure of Biological Example 7. A maximum fold increase of ≤1.2 is indicated by one star (*), a fold increase between >1.2 and ≤1.35 is indicated by two stars (**), a fold increase between >1.35 and ≤1.5 is indicated by three stars (***), a fold increase between >1.5 and ≤1.65 is indicated by four stars (****) and a fold increase >1.65 is indicated by five stars (*****).

[2] = system: SMN2 minigene mRNA (SMN2-A minigene) in HEK293H cells; experiment: SMN2 minigene mRNA splicing RT-qPCR assay in cultured cells; assay type: cell-based, human; settings: Homo sapiens, HEK293-H; concentration increasing full length SMN2 mRNA 1.5-fold relative to vehicle-treated cells; HEK293H cells with SMN2-A minigene, 24 hours, 7-point concentration data; read-out: EC1.5x for production of full length SMN2 mRNA
Experimental: The reverse transcription-quantitative PCR-based (RT-qPCR) assay is used to quantify the level of the full length SMN2 minigene mRNA containing SMN2 exon 7 in a HEK293H cell line stably transfected with said minigene and treated with a test compound.
Protocol. HEK293H cells stably transfected with the SMN2-A minigene construct described above (10,000 cells/well) are seeded in 200 μL of cell culture medium (DMEM plus 10% FBS, with 200 μg/mL hygromycin) in 96-well flat-bottom plates and the plate is immediately swirled to ensure proper dispersal of cells, forming an even monolayer of cells. Cells are allowed to attach for at least 4-6 hours. Test compounds are serially diluted 3.16-fold in 100% DMSO to generate a 7-point concentration curve. A solution of test compound (1 μL, 200× in DMSO) is added to each cell-containing well and the plate is incubated for 24 hours in a cell culture incubator (37° C., 5% CO2, 100% relative humidity). 2 replicates are prepared for each test compound concentration. The cells are then lysed in Cells-To-Ct lysis buffer and the lysate is stored at −80° C.
Primer SMN Forward A (SEQ ID NO. 1) hybridizes to a nucleotide sequence in exon 7 (nucleotide 22 to nucleotide 40), primer SMN Reverse A (SEQ ID NO. 2) hybridizes to a nucleotide sequence in the coding sequence of Firefly luciferase, SMN Probe A (SEQ ID NO. 3) hybridizes to a nucleotide sequence in exon 7 (nucleotide 50 to nucleotide 54) and exon 8 (nucleotide 1 to nucleotide 21). The combination of these three oligonucleotides detects only SMN1 or SMN2 minigenes (RT-qPCR) and will not detect endogenous SMN1 or SMN2 genes.
The SMN forward and reverse primers are used at final concentrations of 0.4 μM. The SMN probe is used at a final concentration of 0.15 μM. The GAPDH primers are used at final concentrations of 0.2 μM and the probe at 0.15 μM.
The SMN2-minigene GAPDH mix (15 μL total volume) is prepared by combining 7.5 μL of 2× RT-PCR buffer, 0.4 μL of 25× RT-PCR enzyme mix, 0.75 μL of 20× GAPDH primer-probe mix, 4.0075 μL of water, 2 μL of 10-fold diluted cell lysate, 0.06 μL of 100 μM SMN forward primer, 0.06 μL of 100 μM SMN reverse primer, and […].
PCR is carried out at the following temperatures for the indicated time: Step 1: 48° C. (15 min); Step 2: 95° C. (10 min); Step 3: 95° C. (15 sec); Step 4: 60° C. (1 min); then repeat Steps 3 and 4 for a total of 40 cycles.
Each reaction mixture contains both SMN2-A minigene and GAPDH primers/probe sets (multiplex design), allowing simultaneous measurement of the levels of two transcripts.
Two SMN spliced products are generated from the SMN2 minigene. The first spliced product containing exon 7, corresponding to full length SMN2 mRNA, is referred to herein using the term “SMN2 minigene FL.” The second spliced product lacking exon 7 is referred to herein using the term “SMN2 minigene Δ7.”
The increase of SMN2 minigene FL mRNA relative to that in cells treated with vehicle control is determined from real-time PCR data using a modified ΔΔCt method (as described in Livak and Schmittgen, Methods, 2001, 25:402-8). The amplification efficiency (E) is calculated from the slope of the amplification curve for SMN2 minigene FL and GAPDH individually. The abundances of SMN2 minigene FL and GAPDH are then calculated as (1+E)^−Ct, where Ct is the threshold value for each amplicon. The abundance of SMN2 minigene FL is normalized to GAPDH abundance. The normalized SMN2 minigene FL abundance from test compound-treated samples is then divided by normalized SMN2 minigene FL abundance from vehicle-treated cells to determine the level of SMN2 FL mRNA relative to vehicle control.
For compounds of Formula (I) or a form thereof disclosed herein, Table 4 provides the […] for production of full length SMN2 mRNA that was obtained from the 7-point concentration data generated for each test compound according to the procedure of Biological Example 2. […]

Structure (SMILES): Cc1nc2ccc(-c3cc(=O)n4cc(C5=CCNCC5)ncc4n3)cc2o1.Cl [Compound 421, 2-(2-methyl-1,3-benzoxazol-6-yl)-7-(1,2,3,6-tetrahydropyridin-4-yl)-4H-pyrazino[1,2-a]pyrimidin-4-one hydrochloride (1:1)]
- maximum fold (Fold) increase of Smn protein [1]: *** (a fold increase between >1.35 and ≤1.5 is indicated by three stars (***))
- EC (1.5-fold increase) [2]: < 0.1 µM

Structure (SMILES): Cc1cn2cc(-c3cc(=O)n4cc(N5CCNC6(CC6)C5)ccc4n3)cc(C)c2n1 [Compound 809, 7-(4,7-diazaspiro[2.5]oct-7-yl)-2-(2,8-dimethylimidazo[1,2-a]pyridin-6-yl)-4H-pyrido[1,2-a]pyrimidin-4-one]
- EC1.5x for Smn protein expression [1]: **** (an EC1.5x≤0.3 μM is indicated by four stars (****))
- maximum fold (Fold) increase of Smn protein [1]: ***** (a fold increase >1.65 is indicated by five stars (*****))
- EC (1.5-fold increase) [2]: < 0.1 µM

Structure (SMILES): O=c1cc(-c2cc(F)cc(C(F)(F)F)c2)nc2ccc(N3CCNCC3)cn12 [Compound 76, 2-[3-fluoro-5-(trifluoromethyl)phenyl]-7-(piperazin-1-yl)-4H-pyrido[1,2-a]pyrimidin-4-one]
- maximum fold (Fold) increase of Smn protein [1]: ** (a fold increase between >1.2 and ≤1.35 is indicated by two stars (**))
- EC (1.5-fold increase) [2]: 0.3 to 1 µM

Structure (SMILES): CCN1CCN(c2ccc3nc(-c4cc5c(C)nc(C)cn5n4)cc(=O)n3c2)C[C@H]1C [Compound 343, 2-(4,6-dimethylpyrazolo[1,5-a]pyrazin-2-yl)-7-[(3R)-4-ethyl-3-methylpiperazin-1-yl]-4H-pyrido[1,2-a]pyrimidin-4-one]
- EC1.5x for Smn protein expression [1]: **** (an EC1.5x≤0.3 μM is indicated by four stars (****))
- maximum fold (Fold) increase of Smn protein [1]: ***** (a fold increase >1.65 is indicated by five stars (*****))
- EC (1.5-fold increase) [2]: < 0.1 µM

Structure (SMILES): Cc1nc2ccc(-c3cc(=O)n4cc(N5CCC(N(C)C)CC5)ccc4n3)cc2s1 [Compound 285, 7-[4-(dimethylamino)piperidin-1-yl]-2-(2-methyl-1,3-benzothiazol-6-yl)-4H-pyrido[1,2-a]pyrimidin-4-one]
- EC1.5x for Smn protein expression [1]: **** (an EC1.5x≤0.3 μM is indicated by four stars (****))
- maximum fold (Fold) increase of Smn protein [1]: ***** (a fold increase >1.65 is indicated by five stars (*****))
- EC (1.5-fold increase) [2]: < 0.1 µM

Structure (SMILES): CCc1cc(-c2cc(=O)n3cc(N4C[C@@H](C)N[C@@H](C)C4)ccc3n2)cn2cc(C)nc12 [Compound 675, 7-[(3R,5S)-3,5-dimethylpiperazin-1-yl]-2-(8-ethyl-2-methylimidazo[1,2-a]pyridin-6-yl)-4H-pyrido[1,2-a]pyrimidin-4-one]
- EC1.5x for Smn protein expression [1]: **** (an EC1.5x≤0.3 μM is indicated by four stars (****))
- maximum fold (Fold) increase of Smn protein [1]: ***** (a fold increase >1.65 is indicated by five stars (*****))
- EC (1.5-fold increase) [2]: < 0.1 µM

Structure (SMILES): Cc1cn2nc(-c3cc(=O)n4cc(C5CCNCC5)ccc4n3)cc2c(C)n1 [Compound 452, 2-(4,6-dimethylpyrazolo[1,5-a]pyrazin-2-yl)-7-(piperidin-4-yl)-4H-pyrido[1,2-a]pyrimidin-4-one]
- EC1.5x for Smn protein expression [1]: **** (an EC1.5x≤0.3 μM is indicated by four stars (****))
- maximum fold (Fold) increase of Smn protein [1]: ***** (a fold increase >1.65 is indicated by five stars (*****))
- EC (1.5-fold increase) [2]: < 0.1 µM

Structure (SMILES): COc1ccc(-c2cc(=O)n3cc(C4=CCNCC4)cnc3n2)cc1OC [Cpd 353, 2-(3,4-dimethoxyphenyl)-7-(1,2,3,6-tetrahydropyridin-4-yl)-4H-pyrimido[1,2-a]pyrimidin-4-one]
- maximum fold (Fold) increase of Smn protein [1]: ** (a fold increase between >1.2 and ≤1.35 is indicated by two stars (**))
- EC (1.5-fold increase) [2]: 0.1 to 0.3 µM

Structure (SMILES): Cc1cn2cc(-c3cc(=O)n4cc(N5CCN(C)CC5)ccc4n3)cc(C)c2n1 [Compound 808, 2-(2,8-dimethylimidazo[1,2-a]pyridin-6-yl)-7-(4-methylpiperazin-1-yl)-4H-pyrido[1,2-a]pyrimidin-4-one]
- EC1.5x for Smn protein expression [1]: **** (an EC1.5x≤0.3 μM is indicated by four stars (****))
- maximum fold (Fold) increase of Smn protein [1]: ***** (a fold increase >1.65 is indicated by five stars (*****))
- EC (1.5-fold increase) [2]: < 0.1 µM
